# From PubChem BioAssay (NCI)
# Several values for one entry are separate records, joined by “and”; a condition that tells them apart may be missing. Equal entries are not always repeated.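 96-well plates; 48 h exposure; 5 concentrations. Endpoints by linear interpolation between flanking doses. Not reached: highest tested concentration assigned. GI50: concentration for 50% inhibition of growth. TGI denotes the concentration required for complete inhibition of growth.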
# Legend:
# Assay in all cases: NCI tumour cell line growth inhibition, 48 h
# HOP-62 NSCLC = tested on: HOP-62 NSCLC
# OVCAR-3 ovarian = tested on: OVCAR-3 ovarian
# HCT-116 colon = tested on: HCT-116 colon
# COLO 205 colon = tested on: COLO 205 colon
# DU-145 prostate = tested on: DU-145 prostate
# HOP-92 NSCLC = tested on: HOP-92 NSCLC
# SK-MEL-2 melanoma = tested on: SK-MEL-2 melanoma
# ACHN renal = tested on: ACHN renal
# IGROV1 ovarian = tested on: IGROV1 ovarian
# U251 CNS = tested on: U251 CNS
# LOX IMVI melanoma = tested on: LOX IMVI melanoma
# KM12 colon = tested on: KM12 colon
# OVCAR-5 ovarian = tested on: OVCAR-5 ovarian
# SK-MEL-28 melanoma = tested on: SK-MEL-28 melanoma
# T-47D breast = tested on: T-47D breast
# UACC-257 melanoma = tested on: UACC-257 melanoma
# OVCAR-4 ovarian = tested on: OVCAR-4 ovarian
# SN12C renal = tested on: SN12C renal
# A549 NSCLC = tested on: A549 NSCLC
# 786-0 renal = tested on: 786-0 renal
# MOLT-4 leukemia = tested on: MOLT-4 leukemia
# MDA-MB-231 breast = tested on: MDA-MB-231 breast
# SF-295 CNS = tested on: SF-295 CNS
# MDA-N = tested on: MDA-N
# HCT-15 colon = tested on: HCT-15 colon
# MCF7 breast = tested on: MCF7 breast
# HS 578T breast = tested on: HS 578T breast
# NCI-H226 lung = tested on: NCI-H226 lung
# SF-539 CNS = tested on: SF-539 CNS
# MDA-MB-435 = tested on: MDA-MB-435
# SK-OV-3 ovarian = tested on: SK-OV-3 ovarian
# PC-3 prostate = tested on: PC-3 prostate
# HL-60(TB) leukemia = tested on: HL-60(TB) leukemia
# K-562 leukemia = tested on: K-562 leukemia
# HCC-2998 colon = tested on: HCC-2998 colon
# NCI-H460 lung = tested on: NCI-H460 lung
# NCI-H522 lung = tested on: NCI-H522 lung
# RPMI-8226 leukemia = tested on: RPMI-8226 leukemia
# NCI/ADR-RES ovarian = tested on: NCI/ADR-RES ovarian
# SNB-75 CNS = tested on: SNB-75 CNS
# RXF 393 renal = tested on: RXF 393 renal
# OVCAR-8 ovarian = tested on: OVCAR-8 ovarian
# CAKI-1 renal = tested on: CAKI-1 renal
# HT29 colon = tested on: HT29 colon
# TK-10 renal = tested on: TK-10 renal
# CCRF-CEM leukemia = tested on: CCRF-CEM leukemia
# UACC-62 melanoma = tested on: UACC-62 melanoma
# SW-620 colon = tested on: SW-620 colon
# EKVX NSCLC = tested on: EKVX NSCLC
# SF-268 CNS = tested on: SF-268 CNS
# M14 melanoma = tested on: M14 melanoma
# A498 renal = tested on: A498 renal
# UO-31 renal = tested on: UO-31 renal
# BT-549 breast = tested on: BT-549 breast
# SNB-19 CNS = tested on: SNB-19 CNS
# SK-MEL-5 melanoma = tested on: SK-MEL-5 melanoma
# NCI-H23 lung = tested on: NCI-H23 lung
# SR leukemia = tested on: SR leukemia
# DLD-1 colon = tested on: DLD-1 colon
# MALME-3M melanoma = tested on: MALME-3M melanoma
# SNB-78 CNS = tested on: SNB-78 CNS
# DMS 273 small cell lung = tested on: DMS 273 small cell lung
# HOP-18 NSCLC = tested on: HOP-18 NSCLC
# M19-MEL melanoma = tested on: M19-MEL melanoma
# DMS 114 small cell lung = tested on: DMS 114 small cell lung
smiles,measurement,setting,value
CC(C)CC(C/C=C1/CC(CO)(COC(=O)C(C)(C)C)OC1=O)CC(C)C (stereo not given),GI50,HOP-62 NSCLC,10.8 µM and 1.92 µM
same,TGI,HOP-62 NSCLC,31.7 µM and 20.1 µM
same,GI50,OVCAR-3 ovarian,14.9 µM and 5.32 µM
same,TGI,OVCAR-3 ovarian,36.6 µM and 18.8 µM
same,TGI,HCT-116 colon,29.5 µM and 30.9 µM
same,TGI,COLO 205 colon,0.958 µM
same,GI50,DU-145 prostate,20.2 µM
same,TGI,DU-145 prostate,49.2 µM and 11.5 µM
same,TGI,HOP-92 NSCLC,18.8 µM
same,TGI,SK-MEL-2 melanoma,30.3 µM and 24.3 µM
same,GI50,ACHN renal,11.4 µM and 5.25 µM
same,TGI,ACHN renal,24.1 µM and 21.3 µM
same,TGI,IGROV1 ovarian,30.6 µM and 24.4 µM
same,TGI,U251 CNS,21.7 µM
same,GI50,LOX IMVI melanoma,12.3 µM and 1.76 µM
same,TGI,LOX IMVI melanoma,27.9 µM and 21.9 µM
same,GI50,KM12 colon,13.7 µM and 14.8 µM
same,TGI,KM12 colon,29.3 µM and 33.2 µM
same,TGI,OVCAR-5 ovarian,24.5 µM
same,GI50,SK-MEL-28 melanoma,28.7 µM
same,TGI,SK-MEL-28 melanoma,44.7 µM and 20.8 µM
same,TGI,T-47D breast,40.5 µM and 23.9 µM
same,TGI,UACC-257 melanoma,31.3 µM and 31 µM
same,TGI,OVCAR-4 ovarian,34.9 µM and 30.6 µM
same,TGI,SN12C renal,22.2 µM
same,GI50,A549 NSCLC,1.07 µM and 0.515 µM
same,TGI,A549 NSCLC,16.1 µM and 11.2 µM
same,GI50,786-0 renal,1.72 µM and 7.83 µM
same,TGI,786-0 renal,17.7 µM and 26.3 µM
same,TGI,MOLT-4 leukemia,23.6 µM and > 41.6 µM
same,TGI,MDA-MB-231 breast,17.4 µM
same,GI50,SF-295 CNS,12.2 µM and 1.7 µM
same,TGI,SF-295 CNS,36.7 µM and 12.7 µM
same,GI50,MDA-N,0.2 µM and 0.849 µM
same,TGI,MDA-N,6.28 µM and 17.6 µM
same,TGI,HCT-15 colon,29.1 µM and 28.7 µM
same,TGI,MCF7 breast,34.2 µM and 40.3 µM
same,TGI,HS 578T breast,24.2 µM and 14.7 µM
same,GI50,NCI-H226 lung,3.34 µM and 14.1 µM
same,TGI,NCI-H226 lung,17.6 µM and 28.5 µM
same,TGI,SF-539 CNS,21.3 µM
same,TGI,MDA-MB-435,18.3 µM and 15 µM
same,TGI,SK-OV-3 ovarian,39.7 µM
same,TGI,PC-3 prostate,21.2 µM and 21.6 µM
same,GI50,HL-60(TB) leukemia,0.154 µM and 0.46 µM
same,TGI,HL-60(TB) leukemia,16.9 µM and 16.7 µM
same,TGI,K-562 leukemia,27.4 µM and > 37.5 µM
same,TGI,HCC-2998 colon,5.37 µM and 6.13 µM
same,TGI,NCI-H460 lung,17.8 µM and 5.69 µM
same,TGI,NCI-H522 lung,30 µM and 27 µM
same,GI50,RPMI-8226 leukemia,17.1 µM and 3.85 µM
same,TGI,RPMI-8226 leukemia,54.5 µM and 21.2 µM
same,TGI,NCI/ADR-RES ovarian,35.3 µM and 29.7 µM
same,TGI,SNB-75 CNS,23.6 µM and 26.6 µM
same,TGI,RXF 393 renal,43.8 µM and 32.9 µM
same,TGI,OVCAR-8 ovarian,32.9 µM and 38.7 µM
same,GI50,CAKI-1 renal,7.62 µM and 1.19 µM
same,TGI,CAKI-1 renal,21.5 µM and 9.68 µM
same,GI50,HT29 colon,10.3 µM and 2.55 µM
same,TGI,HT29 colon,23.2 µM and 18.6 µM
same,GI50,TK-10 renal,1.58 µM and 0.543 µM
same,TGI,TK-10 renal,15.7 µM and 1.97 µM
same,TGI,CCRF-CEM leukemia,18.4 µM
same,TGI,UACC-62 melanoma,28.8 µM and 24.1 µM
same,TGI,SW-620 colon,19.4 µM and 22 µM
same,GI50,EKVX NSCLC,1.25 µM and 0.247 µM
same,TGI,EKVX NSCLC,10.7 µM and 7 µM
same,TGI,SF-268 CNS,26.4 µM and 25.4 µM
same,TGI,M14 melanoma,28 µM and 26.2 µM
same,TGI,A498 renal,21.7 µM and 22.2 µM
same,GI50,UO-31 renal,10.8 µM and 3.51 µM
same,TGI,UO-31 renal,23 µM and 17.1 µM
same,TGI,BT-549 breast,24.6 µM and 31 µM
same,TGI,SNB-19 CNS,23.4 µM and 18.5 µM
same,GI50,SK-MEL-5 melanoma,0.462 µM and 0.0794 µM
same,TGI,SK-MEL-5 melanoma,18.8 µM and 4.95 µM
same,TGI,NCI-H23 lung,23.4 µM and 24.4 µM
same,TGI,SR leukemia,26.4 µM
CC(C)(C)c1ccc2c(c1)S(=O)(=O)Nc1ccc(Cl)cc1NS(=O)(=O)c1cc(C(C)(C)C)ccc1OCCOCCOCCO2,TGI,HOP-62 NSCLC,> 100 µM
same,TGI,OVCAR-3 ovarian,> 100 µM
same,TGI,HCT-116 colon,> 100 µM
same,TGI,COLO 205 colon,> 100 µM
same,TGI,HOP-92 NSCLC,72.7 µM
same,TGI,SK-MEL-2 melanoma,> 100 µM
same,TGI,ACHN renal,> 100 µM
same,TGI,DLD-1 colon,> 100 µM
same,TGI,IGROV1 ovarian,> 100 µM
same,TGI,U251 CNS,> 100 µM
same,TGI,LOX IMVI melanoma,> 100 µM
same,TGI,KM12 colon,> 100 µM
same,TGI,OVCAR-5 ovarian,> 100 µM
same,TGI,SK-MEL-28 melanoma,> 100 µM
same,TGI,UACC-257 melanoma,> 100 µM
same,TGI,OVCAR-4 ovarian,28 µM
same,TGI,SN12C renal,> 100 µM
same,TGI,A549 NSCLC,> 100 µM
same,TGI,786-0 renal,> 100 µM
same,TGI,MOLT-4 leukemia,> 100 µM
same,TGI,MALME-3M melanoma,80 µM
same,TGI,SF-295 CNS,> 100 µM
same,TGI,SNB-78 CNS,> 100 µM
same,TGI,DMS 273 small cell lung,> 100 µM
same,TGI,HCT-15 colon,> 100 µM
same,TGI,NCI-H226 lung,> 100 µM
same,TGI,SF-539 CNS,> 100 µM
same,TGI,SK-OV-3 ovarian,86.3 µM
same,TGI,HOP-18 NSCLC,> 100 µM
same,TGI,HL-60(TB) leukemia,> 100 µM
same,TGI,K-562 leukemia,> 100 µM
same,TGI,HCC-2998 colon,> 100 µM
same,TGI,NCI-H460 lung,> 100 µM
same,TGI,SNB-75 CNS,59 µM
same,TGI,RXF 393 renal,79.1 µM
same,TGI,M19-MEL melanoma,> 100 µM
same,TGI,OVCAR-8 ovarian,> 100 µM
same,TGI,DMS 114 small cell lung,> 100 µM
same,TGI,CAKI-1 renal,> 100 µM
same,TGI,HT29 colon,> 100 µM
same,TGI,TK-10 renal,> 100 µM
same,TGI,CCRF-CEM leukemia,> 100 µM
same,TGI,UACC-62 melanoma,> 100 µM
same,TGI,SW-620 colon,> 100 µM
same,TGI,EKVX NSCLC,> 100 µM
same,TGI,SF-268 CNS,> 100 µM
same,TGI,M14 melanoma,> 100 µM
same,TGI,A498 renal,> 100 µM
same,TGI,UO-31 renal,> 100 µM
same,TGI,SNB-19 CNS,> 100 µM
same,TGI,SK-MEL-5 melanoma,> 100 µM
same,TGI,NCI-H23 lung,> 100 µM
